From a melting point compilation (Tetko et al.)

Row | melting point [°C] | SMILES
1 | 94 to 96 | COC(=O)C(CCSC)NC(=O)c1ccc(C(F)(F)F)cc1 (configuration not stated)
2 | 62.5 | C=C1CCC2OC2(C)CCC2C1CC2(C)C (single isomer, unassigned; (-))
3 | 136 to 138 | Oc1cccc(N2CCOCC2)c1
4 | 92 to 96 | CC(C)(C)OC(=O)N[C@@H](Cc1ccccc1F)C(=O)O
5 | 24.5 | CCCCCCCCCCCC(=O)Oc1ccccc1
6 | 186 | NNC(=O)c1cc2ccccc2s1
7 | 227 | c1ccc(-c2c(-c3[nH]c4ccccc4c3-c3ccccc3)[nH]c3ccccc23)cc1
8 | 285 to 286 | O=[N+]([O-])c1ccc(-c2cn3c(n2)sc2ccccc23)cc1
9 | 74 | O=C1OC(=O)C2=C1CCCC2
10 | 54 to 55 | BrCc1cccc(-n2cccc2)c1
11 | 7 | C=C[Si](OC(C)=O)(OC(C)=O)OC(C)=O
12 | 180 to 182 | O=C(O)c1cccc(-c2ncccn2)c1
13 | 270 | NS(=O)(=O)c1cc2c(cc1Cl)NC(C(Cl)Cl)NS2(=O)=O (configuration not stated)
14 | 93 | C=CCC1=C(OC(C)=O)C2=CC=C3C(C)=C(C)C(=O)CC3(C)C2=C(O)C1=O (configuration not stated)
15 | 101 | CCCCCC(N)=O
16 | 159 | Cc1c(C)c(C)c(C#N)c(C)c1C
17 | 190 to 195 | O=C1Cc2cc(O)ccc2O1
18 | 34.5 | Clc1ccnc2ccccc12
19 | 94 to 98 | CC(=O)c1ccc(N2CCOCC2)cc1
20 | 143 | O=C(O)c1ccno1
21 | 58 | Cc1cc(Br)cc(Br)c1O
22 | 31.5 | C[Si]1(C)O[Si](C)(C)O[Si](C)(C)O[Si](C)(C)O[Si](C)(C)O[Si](C)(C)O[Si](C)(C)O[Si](C)(C)O1

Row | melting point [°C] | SMILES
23 | 192 to 193 | CCOC(=O)CSc1nc(=O)[nH]c2c1CCCC2
24 | 207 | CCC1=C(C)CN(C(=O)NCCc2ccc(S(=O)(=O)NC(=O)NC3CCC(C)CC3)cc2)C1=O (configuration not stated)
25 | 56 to 57 | OCc1ccc(-c2ccco2)s1
26 | 129 to 134 | O=S(=O)(SS(=O)(=O)c1ccccc1)c1ccccc1
27 | 90 | CN(C)C(=S)Oc1ccc2ccccc2c1
28 | 204 | C#CC1(O)CCC2C3CCC4=CC(=O)CCC4C3CCC21C (configuration not stated)
29 | 154 | CC(C)(OCc1ccc(-c2ccc(Cl)cc2)cc1)C(=O)O
30 | 252 to 253 | Nn1c(S(=O)(=O)O)nc2ccccc21
31 | 159 | CC(=O)Oc1ccccc1C(=O)Oc1ccccc1C(=O)O
32 | 247 to 250 | NC(=O)NNC(N)=O
33 | 249 | CCOc1ccc2[nH]c(S)nc2c1
34 | 106 to 111 | OC1CN(C(c2ccccc2)c2ccccc2)C1
35 | 92.5 | CC/C(=N\O)C1CC2(C)CCC1C2(C)C (configuration not stated)
36 | 73 to 74 | Brc1cccc(-c2cc[nH]n2)c1
37 | 152 | Cc1ccc2cc3c(ccc4ccccc43)cc2c1
38 | 237 | CCOC(=O)NC1C(N(C)C)C2CCC1(C)C2(C)C (configuration not stated)
39 | 218 | CC(=O)Nc1cc(N)c(C=Cc2ccccc2)cc1/C=C/c1ccccc1
40 | 201 | CC(=O)C1C(=O)C2(C)CCC1C2(C)C (configuration not stated)
41 | -65 | CC=CCCl
42 | 35.5 | Cc1cc(C)n(C)n1
43 | 67 | COc1ccc(C(O)c2ccccc2)cc1 (configuration not stated)
44 | 48 | COC(=O)c1ccc(N=C=S)cc1

Row | melting point [°C] | SMILES
45 | 93 to 94 | COC(=O)CC1C(=O)NC(C)=C1C(=O)OC (configuration not stated)
46 | 51 | Cc1ccc(F)c(C#N)c1
47 | -4 | CC(=O)O[Si](OC(C)=O)(OC(C)(C)C)OC(C)(C)C
48 | 142 | CCCCCCCCCCCC1=C(O)C(=O)C=C(O)C1=O
49 | 114 | OC(CCN1CCCCC1)(c1ccccc1)C1CC2C=CC1C2 (configuration not stated)
50 | 54 to 55 | NCc1ccc(CN2CCOCC2)cc1
51 | 137 | Nc1ccc(CCc2ccc(N)cc2)cc1
52 | 137 to 139 | c1ccc(CSc2nnc(SCc3ccccc3)nn2)cc1
53 | 149 | CC/C(CCCc1ccccc1)=N\NC(N)=O
54 | 212 | CCOC(=O)c1cc2c(=O)oc3ccccc3c2n(Cc2ccccc2)c1=O
55 | 112 | Cc1ccc(C(C)(Cl)C(=O)O)cc1 (configuration not stated)
56 | 93 | COc1ccc2c(c1)C(C(=O)O)C2 (configuration not stated)
57 | 124 | CC(=O)C=CC(=O)O
58 | 208 | CNCC(=O)O
59 | -6 | C=CC(C)(C)C(=O)O
60 | > 360 | CCOC(=O)CNc1cc(NCC(=O)OCC)c(N)cc1N
61 | 199 to 201 | Cc1nn(-c2ccccc2)c(C)c1C(=O)O
62 | 136 | CC(C)NC(=O)C(C(F)(F)F)C(F)(F)F
63 | 110 to 114 | O=C(Cl)c1cccc2nsnc12
64 | 242 | c1cc(-c2n[nH]c(-c3ccncc3)n2)ccn1
65 | 160 | O=C(O)C1CCCC1C(=O)O (configuration not stated)
66 | 180 to 182 | O=c1c2ccccc2oc2ncccc12

More lines, now with the values behind:

Row | SMILES | melting point [°C]
67 | CCOC(=O)C1=C(C)NC(=S)NC1c1ccco1 (configuration not stated) | 174 to 175
68 | CCC(=O)OC1CCC2C3CCC4CC(=O)C(C)CC4(C)C3CCC12C (configuration not stated) | 128
69 | CCOC(C)=C(C#N)C#N | 89 to 93
70 | CC1=C(C=NO)C(=O)C(C(C)C)C=C1 (configuration not stated) | 146
71 | Cc1ccc(CNC2=CC(=O)c3ccccc3C2=O)nc1 | 134 to 136
72 | O=c1c(C2CC(c3ccc(-c4ccc(Br)cc4)cc3)Cc3ccccc32)c(O)sc2ccccc12 (configuration not stated) | 235
73 | COc1cc(C)c2c(=O)c(-c3ccccc3)coc2c1 | 116 to 120
74 | CCOC(=O)C1(c2ccccc2)CCN(CCc2ccc(N)cc2)CC1 | 83
75 | C=CCC(C(=O)NC(N)=O)C(C)C (configuration not stated) | 194
76 | O=[N+]([O-])c1cc([N+](=O)[O-])c(Cl)c(C(F)(F)F)c1 | 63
77 | O=C1OC(=O)c2c(I)c(I)c(I)c(I)c21 | 328
78 | CCC[C@H]1CCC[C@H]1C (relative stereo) | -104
79 | NNC(=O)c1cnn(-c2ccccc2)c1C(F)(F)F | 153 to 155
80 | COC1CCC(CC(=O)O)CC1 (configuration not stated) | 78
81 | O=C(Nc1ccc([N+](=O)[O-])cc1)c1ccccc1 | 198
82 | CSc1nc(O)ns1 | 158 to 160
83 | NNC(=O)c1ccccc1Oc1ccccc1 | 99 to 103
84 | NC(=O)COc1ccccc1 | 102
85 | ON=C(Cc1ccccc1)C(Cc1ccccc1)=NO | 193
86 | Cc1onc(-c2c(Cl)cccc2Cl)c1CCl | 61 to 63
87 | O=S(=O)(Cl)c1ccc(CBr)cc1 | 74
88 | CCCCCC(O)CCCCC | 25

Row | SMILES | melting point [°C]
89 | O=C(O)c1csc(-c2ccncc2)n1 | 304 to 307
90 | NC(CO)Cc1ccccc1 (configuration not stated) | 91.5
91 | Cc1ccc(-c2csc(/C(C#N)=N/Nc3ccc(F)cc3)n2)cc1 | 196
92 | CC(=O)OC1CC2C(C)C(=O)C3(C(OC(C)=O)CC4C5(C)CCCC4(C(OC(C)=O)OC5)C13)C2OC(C)=O (configuration not stated) | 104
93 | N#CCN | 101
94 | O=C(O)c1cc(-c2cccs2)[nH]n1 | 229 to 232
95 | ON=Cc1ccco1 | 78 to 80
96 | COc1cc(N=C=S)cc(OC)c1 | 50.5
97 | O=C(O)c1ccc(C(=O)O)c2c(C(=O)O)ccc(C(=O)O)c12 | 320
98 | NCCc1cccc(CCO)c1 | 264
99 | Cc1cc(C(=O)O)nn1C | 175 to 178
100 | CCCCCCCCCCCCCCCCCC(=O)Cl | 23
101 | Clc1cc(Cl)c2c(c1)Oc1cc(Cl)c(Cl)cc1O2 | 194
102 | C=C1CCC(O)CC1=CC=C1CCCC2(C)C1CCC2C(C)C=CC(C)C(C)C (configuration not stated) | 116
103 | O=C1C(Cl)C(CCl)CN1c1cccc(C(F)(F)F)c1 (configuration not stated) | 67.7
104 | Nc1n[nH]c(S)n1 | 300
105 | CCc1ccc(-c2ccccc2)cc1 | 35
106 | NC(=O)/C(=C\c1ccccc1O)c1nc2ccccc2s1 | 210
107 | O=C(Nc1ccc2ncccc2c1)Nc1ccc2ncccc2c1 | 262
108 | CCCOC1CCC2(C)C(CCC3C2CCC2(C)C(OCCC)CCC32)C1 (configuration not stated) | 112 to 135
109 | CCN(CC)C(=O)C1C=C2c3cccc4[nH]c(Br)c(c34)CC2N(C)C1 (configuration not stated) | 124
110 | C=CC1CN2CCC1CC2C(O)c1ccnc2ccc(O)cc12 (configuration not stated) | 202

Row | SMILES | melting point [°C]
111 | CC(C)(C)c1cc(C#N)cc(C(C)(C)C)c1O | 144 to 146
112 | O=CC(Cl)(Cl)Cl | -57.5
113 | CCOc1ccc(NC(=O)CC(C)O)cc1 (configuration not stated) | 160
114 | CCN(CC)C(=O)c1ccccc1 | 30
115 | CC(CCl)(CCl)C(=O)O | 64 to 66
116 | O=[N+]([O-])c1cc(S(=O)(=O)Cl)sc1Cl | 53
117 | CC(=O)OCC1OC(n2cnc3c(=O)[nH]c(N)nc32)C(OC(C)=O)C1OC(C)=O (configuration not stated) | 224 to 233
118 | O=Cc1csc(-c2ccccc2)n1 | 51 to 52
119 | CC(CN1c2ccccc2Sc2ccccc21)N(C)C (configuration not stated) | 60
120 | N#Cc1ccncc1C#N | 80
121 | Cc1c(C)n(C=O)c2ccccc12 | 89
122 | O=C(O)C=Cc1ccc(F)cc1Cl | 247
123 | CCCCCCCCBr | -55
124 | C=CCNc1nc(N)c(C(N)=O)s1 | 158 to 160
125 | N#Cc1ccc2c(c1)COC2=O | 201 to 205
126 | CC1CN2CC(=O)Nc3ccc(Cl)cc3C2(c2ccccc2)O1 (configuration not stated) | 186
127 | O=C(O)C(Cl)CCl (configuration not stated) | 50
128 | CC(C)COC(=O)CCCCC(=O)OCC(C)C | -20
129 | CNC(=N[N+](=O)[O-])NCc1cnc(Cl)s1 | 177
130 | Cc1ccc(Nc2ccc(C)cc2)cc1 | 79.8
131 | CC(=O)OC1(C(C)=O)CCC2C3CC(C)C4=CC(=O)C=CC4(C)C3(F)C(O)CC21C (configuration not stated) | 298
132 | O=S1(=O)OC(c2ccc(O)c(Cl)c2)(c2ccc(O)c(Cl)c2)c2ccccc21 | 261
